From patent publication US5340821A, “Composition and method for treating Sjoegren syndrome disease” (Snow Brand Milk Products Co., Ltd., priority 1992, dated 1994)
Structures can show the parent of a compound that is named as a salt.

What was measured:
[1] = background statement; cited from earlier work
[2] = Toxicity Test (LD50, observation of mice for two weeks); design: species or system ICR (CD-1) mice; conditions: mouse, in vivo
Description: Groups of ICR (CD-1) male and female mice (age: 5 weeks, weight of male mice: 22.0-33.8 g, weight of female mice: 18.8-27.3 g), each consisting of eight mice, were used for the test. 2-methylspiro(1,3-oxathiolane-5,3')quinuclidine hydrochloride of formula (II) was orally, intravenously, or subcutaneously administered at different (high and low) doses. LD50 (50% lethal dose) was determined by the observation of mice for two weeks thereafter.

[3] = tested on: saliva secretion; assay: Saliva secretion effects in dogs; type: in vivo; conditions: four weeks, 4 female beagle dogs
Description: (§1) 2-Methylspiro(1,3-oxathiolane-5,3')quinuclidine hydrochloride of formula (II), in amounts of 0, 0.5, 3, and 18 mg/kg, was orally administered to female beagle dogs (weight: 7.1-9.6 kg) of four groups, each consisting of four dogs, one time a day and for four weeks.

[4] = tested on: tear secretion; assay: Tear secretion effects in dogs; type: in vivo; conditions: four weeks, 4 female beagle dogs
Description: as §1

[5] = tested on: saliva secretion; assay: Saliva secretion effects in human; type: in vivo; conditions: 10 tested subjects
Description: 2-Methylspiro(1,3-oxathiolane-5,3')quinuclidine hydrochloride of formula (II), in amounts of 5, 10, 20, 30, 40, 50, 60, and 70 mg, was orally administered to five men and five women, aged 20-50 years.

[6] = tested on: saliva secretion; assay: Saliva secretion effects in patients suffering from a Sjoegren syndrome disease (Saxon test); type: in vivo, human
Description: (§2) Five subjects diagnosed to be suffering from a Sjoegren syndrome disease according to the diagnosis criteria made by the study team at the Ministry of Health and Welfare (M. Ofuji, Study Report Summary for 1977, the results for the year 1977 of Diagnostic criteria of Sjoegren's syndrome (Ministry of Health and Welfare's Sjoegren Investigational Research Group), M. Ofugi, Research Report of Ministry of Health and Welfare's specific disease Sjoegren Investigational Research Group in 1977, 3-6, 1978). To each subject was administered said hydrochloric acid addition salt of quinuclidine of formula (II) at a dose of 10 mg, three times a day, each time one hour before meal, for 4 weeks (the first course); 20 mg, three times a day, each time one hour before meal, for 4 weeks (the second course); and 30 mg, three times a day, each time one hour before meal, for 4 weeks (the third course). The Saxon test (Kohler P. F., Winter M. E., Arthritis Rheum, 28, 1128-1132 (1985)) for measuring the saliva secretion was performed before the start of the first course, and after the completion of the first, second, and third courses.

[7] = tested on: Sjoegren syndrome disease; assay: Observation of the patient (Sjoegren syndrome disease); type: in vivo, human
Description: as §2

## CC(C[N+](C)(C)C)OC(N)=O (stereo not shown) [bethanechol]
[1]
  side effects: comprehensive side effects such as headache, hot flush, palpitation, intrathoracic agony, nausea, emesis, diarrhea, abdominal discomfort, pyrosis, stomach discomfort, diaphoresis, and the like

## CC1OC2(CS1)CN1CCC2CC1 (stereo not shown) [2-methylspiro(1,3-oxathiolane-5,3')quinuclidine hydrochloride]
[2]; iv, female mice
  LD50 at 336 h: 40.8 mg/kg
[2]; iv, male mice
  LD50 at 336 h: 45.2 mg/kg
[2]; po, female mice
  LD50 at 336 h: 167 mg/kg
[2]; po, male mice
  LD50 at 336 h: 139 mg/kg
[2]; sc, Subcutaneous, female mice
  LD50 at 336 h: 78.1 mg/kg
[2]; sc, Subcutaneous, male mice
  LD50 at 336 h: 65 mg/kg
[3]; 0.5 mg/kg/day oral
  Number of animals secreted saliva: 0 animals
  Number of animals secreted saliva (%): 0%
[3]; 3.0 mg/kg/day oral
  Number of animals secreted saliva: 3 animals
  Number of animals secreted saliva (%): 75%
[3]; 18.0 mg/kg/day oral
  Number of animals secreted saliva: 4 animals
  Number of animals secreted saliva (%): 100%
[4]; 0.5 mg/kg/day oral
  Number of animals secreted tear: 0 animals
  Number of animals secreted tear (%): 0%
[4]; 3.0 mg/kg/day oral
  Number of animals secreted tear: 1 animals
  Number of animals secreted tear (%): 25%
[4]; 18.0 mg/kg/day oral
  Number of animals secreted tear: 4 animals
  Number of animals secreted tear (%): 100%
[5]; 5 mg oral
  Subjects showing promoted saliva secretion: 0 subjects
[5]; 10 mg oral
  Subjects showing promoted saliva secretion: 0 subjects
[5]; 20 mg oral
  Subjects showing promoted saliva secretion: 2 subjects
[5]; 30 mg oral
  Subjects showing promoted saliva secretion: 8 subjects
[5]; 40 mg oral
  Subjects showing promoted saliva secretion: 10 subjects
[5]; 50 mg oral
  Subjects showing promoted saliva secretion: 10 subjects
[5]; 60 mg oral
  Subjects showing promoted saliva secretion: 10 subjects
[5]; 70 mg oral
  Subjects showing promoted saliva secretion: 10 subjects
[6]; subject 1, after first course (10 mg three times a day)
  Ratio of secreted saliva to the value before the administration in the first course: 1.66
[6]; subject 1, after first course (10 mg three times a day, 4 weeks), before 0.65 g
  Amount of secreted saliva: 1.08 g
[6]; subject 1, after second course (20 mg three times a day)
  Ratio of secreted saliva to the value before the administration in the first course: 3.15
[6]; subject 1, after second course (20 mg three times a day, 4 weeks), before 0.65 g
  Amount of secreted saliva: 2.05 g
[6]; subject 1, after third course (30 mg three times a day)
  Ratio of secreted saliva to the value before the administration in the first course: 6.00
[6]; subject 1, after third course (30 mg three times a day, 4 weeks), before 0.65 g
  Amount of secreted saliva: 3.90 g
[6]; subject 2, after first course (10 mg three times a day)
  Ratio of secreted saliva to the value before the administration in the first course: 1.70
[6]; subject 2, after first course (10 mg three times a day, 4 weeks), before 0.73 g
  Amount of secreted saliva: 1.24 g
[6]; subject 2, after second course (20 mg three times a day)
  Ratio of secreted saliva to the value before the administration in the first course: 3.48
[6]; subject 2, after second course (20 mg three times a day, 4 weeks), before 0.73 g
  Amount of secreted saliva: 2.54 g
[6]; subject 2, after third course (30 mg three times a day)
  Ratio of secreted saliva to the value before the administration in the first course: 6.16
[6]; subject 2, after third course (30 mg three times a day, 4 weeks), before 0.73 g
  Amount of secreted saliva: 4.50 g
[6]; subject 3, after first course (10 mg three times a day)
  Ratio of secreted saliva to the value before the administration in the first course: 1.91
[6]; subject 3, after first course (10 mg three times a day, 4 weeks), before 0.76 g
  Amount of secreted saliva: 1.45 g
[6]; subject 3, after second course (20 mg three times a day)
  Ratio of secreted saliva to the value before the administration in the first course: 2.05
[6]; subject 3, after second course (20 mg three times a day, 4 weeks), before 0.76 g
  Amount of secreted saliva: 1.56 g
[6]; subject 3, after third course (30 mg three times a day)
  Ratio of secreted saliva to the value before the administration in the first course: 4.80
[6]; subject 3, after third course (30 mg three times a day, 4 weeks), before 0.76 g
  Amount of secreted saliva: 3.65 g
[6]; subject 4, after first course (10 mg three times a day)
  Ratio of secreted saliva to the value before the administration in the first course: 1.51
[6]; subject 4, after first course (10 mg three times a day, 4 weeks), before 0.43 g
  Amount of secreted saliva: 0.65 g
[6]; subject 4, after second course (20 mg three times a day)
  Ratio of secreted saliva to the value before the administration in the first course: 3.80
[6]; subject 4, after second course (20 mg three times a day, 4 weeks), before 0.43 g
  Amount of secreted saliva: 1.63 g
[6]; subject 4, after third course (30 mg three times a day)
  Ratio of secreted saliva to the value before the administration in the first course: 6.72
[6]; subject 4, after third course (30 mg three times a day, 4 weeks), before 0.43 g
  Amount of secreted saliva: 2.89 g
[6]; subject 5, after first course (10 mg three times a day)
  Ratio of secreted saliva to the value before the administration in the first course: 1.31
[6]; subject 5, after first course (10 mg three times a day, 4 weeks), before 0.45 g
  Amount of secreted saliva: 0.59 g
[6]; subject 5, after second course (20 mg three times a day)
  Ratio of secreted saliva to the value before the administration in the first course: 2.16
[6]; subject 5, after second course (20 mg three times a day, 4 weeks), before 0.45 g
  Amount of secreted saliva: 0.97 g
[6]; subject 5, after third course (30 mg three times a day)
  Ratio of secreted saliva to the value before the administration in the first course: 3.27
[6]; subject 5, after third course (30 mg three times a day, 4 weeks), before 0.45 g
  Amount of secreted saliva: 1.47 g
[7]; subject 1
  Observation of the patient: Saliva secretion: increased
[7]; subject 2
  Observation of the patient: A dry feeling of oral cavity and irritation in the eyes: improved
[7]; subject 3
  Observation of the patient: The need for drinking water when taking food: eliminated
[7]; subject 4
  Observation of the patient: Incidence of being awaken due to dry mouth at midnight: improved
